Test results taken from PubChem BioAssay AID1159564 (GlaxoSmithKline (GSK), 2015).
Calls of active or inactive are those of the source. The rule behind the calls is not given here.

Tested on: L. donovani-infected THP-1 macrophages, intracellular amastigote imaging
Assay: antileishmanial activity in infected THP-1 macrophages – imaging, THP-1 host macrophages, host toxicity (AID 1159564)
[1] = measured here: THP-1 host cell toxicity
[2] = measured here: amastigotes per macrophage

Row | Structure (SMILES) | IC50 | IC50 [1] | IC50 [2]
1 | CC(C)CC(=O)Nc1cc(C2CC2)nn1-c1nc2c(c(=O)[nH]1)CCCC2 | 7.9 µM | 5 µM | 5 µM
2 | O=c1ccc2ccc(F)c3c2n1C[C@H]3CN1CCN(CC(O)c2cc3c(cn2)OCS3)CC1 (stereo partly drawn) | > 50 µM (inactive) | > 50 µM | > 50 µM
3 | O=C(NCc1nnc2n1CCCCC2)c1ccc(-c2ccc(F)cc2)o1 | > 50 µM (inactive) | > 50 µM | > 50 µM
4 | Cc1nn(C2CCS(=O)(=O)C2)c(C)c1CN(C)C(=O)C=Cc1sc2ccccc2c1Cl (stereo not drawn) | 40 µM | 20 µM | 13 µM
5 | COc1ccc(-c2nc3ccncc3c(=O)n2CCOc2ccccc2)cc1 | > 50 µM (inactive) | > 50 µM | > 50 µM
6 | CS(=O)(=O)NC1CCC(Oc2cc3cnccc3cc2-c2ccsc2)CC1 (stereo not drawn) | 50 µM | 16 µM | 20 µM
7 | Cc1[nH]n2c(=O)c3c(nc2c1-c1ccc(Cl)cc1)CCCC3 | > 50 µM (inactive) | 13 µM | > 50 µM
8 | CS(=O)(=O)c1ccc(Nc2nccc(Nc3n[nH]c4ccc(F)cc34)n2)c(F)c1 | 13 µM | 16 µM | 10 µM
9 | Cn1nccc1-c1cc(OC(CN)c2ccccc2)cnc1-c1ccco1 (stereo not drawn) | > 50 µM (inactive) | 16 µM | 32 µM
10 | COc1ccc(-c2cc(C)no2)cc1S(=O)(=O)Nc1ccc(F)c(Cl)c1 | 25 µM | 32 µM | 20 µM
11 | Nc1ncnc2c1ncn2[C@@H]1O[C@H](CO)C[C@H]1O | > 50 µM (inactive) | > 50 µM | > 50 µM
12 | Cc1ccc(S(=O)(=O)Nc2ccc(CN3CCN(C(=O)c4cccc(C)c4)CC3)cc2)cc1 | 40 µM | 40 µM | 32 µM
13 | Cc1c(C(C)NC(=O)Nc2cccc(Cl)c2)sc2ncnn12 (stereo not drawn) | > 50 µM (inactive) | > 50 µM | 2 µM
14 | Cc1cc(N(C)C)nc(Nc2ccccc2C)n1 | 32 µM | 40 µM | 16 µM
15 | CCc1ccc2nc(NC(=O)c3cc(N4CCOCC4)ccn3)sc2c1 | 1.3 µM | 10 µM | 0.79 µM
16 | COc1ccc2ncc(=O)n(CCN3CC[C@H](NCc4ncc(Cl)c5[nH]ncc45)[C@H](O)C3)c2n1 | > 50 µM (inactive) | > 50 µM | > 50 µM
17 | CC(=O)Nc1ccc(CN2CCC(N3CC(c4ccccc4)(c4ccccc4)OCC3=O)CC2)cc1 | 25 µM | 40 µM | 20 µM
18 | O=C(Nc1ccc(C(F)(F)F)cc1)Nc1cccc([N+](=O)[O-])c1 | 2.5 µM | 6.3 µM | 2 µM
19 | N#Cc1cccc(Cc2cc(Nc3cc(C4CC4)[nH]n3)nc(N3CC[C@H]3C(N)=O)n2)c1 | 0.2 µM | 0.032 µM | 0.079 µM
20 | O=C(NCc1ccncc1)c1ccccc1N1CCCN(C(=O)Cc2ccc(F)c(F)c2)CC1 | > 50 µM (inactive) | > 50 µM | > 50 µM
21 | Cc1nc2c(-c3ncn[nH]3)cc(NC(=O)Cc3ccccc3)cn2c1C | 0.4 µM | 7.9 µM | 0.32 µM
22 | CC(=O)Nc1ccc(-c2noc(CC3CCCN(Cc4cccc(F)c4C)C3)n2)cc1 (stereo not drawn) | 32 µM | > 50 µM | 13 µM
23 | O=C(NCCc1cccnc1)c1ccc(-c2ccccc2F)o1 | > 50 µM (inactive) | > 50 µM | > 50 µM

Row | Structure (SMILES) | IC50 | IC50 [1] | IC50 [2]
24 | O=C1NCCn2ccc(Nc3nc(NC4CCC(O)CC4)ncc3Cl)c21 (stereo not drawn) | 1 µM | 0.4 µM | 0.63 µM
25 | NC(=O)c1ncccc1Nc1nc(NC2CCC(O)CC2)ncc1Br (stereo not drawn) | 1.3 µM | 0.4 µM | 0.63 µM
26 | Cc1[nH]nc2c1C(c1ccc(OCc3ccccc3F)cc1)SCC(=O)N2 (stereo not drawn) | > 50 µM (inactive) | > 50 µM | > 50 µM
27 | CS(=O)(=O)c1ccccc1C(=O)N(Cc1ccccc1)c1ccccc1 | > 50 µM (inactive) | > 50 µM | 16 µM
28 | COc1ccc(C2C3CCCCC3(O)CCN2CC(=O)Nc2ccc(Cl)cc2Cl)cc1 (stereo not drawn) | 2.5 µM | > 50 µM | 0.79 µM
29 | CC(C)(C)CC(=O)NCc1noc(COc2ccccc2)n1 | > 50 µM (inactive) | > 50 µM | > 50 µM
30 | CN(Cc1cc2ccccc2s1)c1ncc2c(N)nc(N)nc2n1 | 32 µM | 25 µM | 25 µM
31 | O=C(NCc1ccc(-n2cccc2)cc1)c1nc(Cn2ccc([N+](=O)[O-])n2)no1 | > 50 µM (inactive) | > 50 µM | > 50 µM
32 | CNc1cncc(C2CCCN2C(=O)Cc2coc3cc(C)ccc23)n1 (stereo not drawn) | > 50 µM (inactive) | > 50 µM | 0.79 µM
33 | O=C(CCCNC(=O)c1ccc(Cl)cc1)Nc1nc(-c2ccccn2)cs1 | 5 µM | > 50 µM | 3.2 µM
34 | CCOc1ccc(NC(=O)C=Cc2ccc(CC)o2)cc1 | 50 µM | 20 µM | 25 µM
35 | CC1CCCN(S(=O)(=O)c2ccc(C(=O)Nc3nc(-c4ccccn4)cs3)cc2)C1 (stereo not drawn) | 0.25 µM | 5 µM | 0.16 µM
36 | CCN(C)Cc1ccc(N2CCC(NS(=O)(=O)c3ccc4c(c3)CCO4)CC2)nc1 | > 50 µM (inactive) | > 50 µM | 
37 | Cc1[nH]nc(-c2nc3ccccc3[nH]2)c1C(=O)NC1CCCNC1 (stereo not drawn) | 6.3 µM | 1.6 µM | 6.3 µM
38 | O=C(Nc1ccccc1)Nc1nc(-c2ccccn2)cs1 | 0.4 µM | 6.3 µM | 0.25 µM
39 | Clc1cc(Br)ccc1OCCCCn1ccnc1 | 25 µM | 32 µM | 6.3 µM
40 | COc1ncc(-c2ccc3ncnc(N4CCOCC4)c3c2)cc1NS(C)(=O)=O | 5 µM | 1 µM | 0.63 µM
41 | O=C1CSC(c2cccnc2)N1c1ccc(Cl)cc1Cl (stereo not drawn) | > 50 µM (inactive) | > 50 µM | > 50 µM
42 | Cc1[nH]c2ccccc2c(=O)c1Cc1c(C)[nH]c2ccccc2c1=O | > 50 µM (inactive) | > 50 µM | > 50 µM
43 | Cc1ccc(Nc2nc(-c3ccccn3)cc(N3CCCC(O)C3)n2)cc1 (stereo not drawn) | 0.79 µM | 25 µM | 0.5 µM
44 | O=C(CSc1ccc(F)cc1)N[C@@H](Cc1cnc[nH]1)C(=O)NCCc1ccccc1 | > 50 µM (inactive) | > 50 µM | > 50 µM
45 | COc1ccc(C(C)(C)C)cc1S(=O)(=O)n1ccnc1 | > 50 µM (inactive) | > 50 µM | 25 µM
46 | Cn1nc([N+](=O)[O-])nc1Oc1ccc(C(=O)c2ccccc2)cc1 | > 50 µM (inactive) | > 50 µM | > 50 µM

Row | Structure (SMILES) | IC50 | IC50 [1] | IC50 [2]
47 | CC(=O)NCCNc1cc(-c2ccnc(Nc3cccc(Cl)c3)n2)ccn1 | 0.25 µM | 0.1 µM | 0.1 µM
48 | CS(=O)(=O)N1CCC(Nc2ncc(Br)c(Nc3cccc(F)c3C(N)=O)n2)CC1 | 1.6 µM | 1 µM | 0.79 µM
49 | O=C(Nc1nc(-c2ccc(F)cc2)cs1)c1ccc([N+](=O)[O-])s1 | 1.3 µM | 7.9 µM | 1 µM
50 | CC(C)c1sc(Cl)nc1C(=O)NCCc1nc(C(=O)Nc2ccc3c(c2)OCO3)cs1 | 5 µM | > 50 µM | 2.5 µM
51 | Cc1cc(C)n(-c2nc(NC(C)(C)C)nc(N3CCOCC3)n2)n1 | 7.9 µM | > 50 µM | 4 µM
52 | N#Cc1cnc(Nc2cccc(CCN3CCOCC3)c2)nc1Nc1ccccc1C(N)=O | 1.6 µM | 0.79 µM | 1 µM
53 | FC(F)(F)c1cc(C2CCCN(Cc3c[nH]c4ccccc34)C2)nc2ncnn12 (stereo not drawn) | > 50 µM (inactive) | 16 µM | > 50 µM
54 | COc1cc(OC)cc(C(NS(=O)(=O)c2ccc(Cl)c(C(F)(F)F)c2)c2nccn2C)c1 (stereo not drawn) | 6.3 µM | > 50 µM | 5 µM
55 | CCN(Cc1ccncc1)Cc1ccc(NC(=O)c2cc(-c3ccc(F)cc3)n[nH]2)cc1 | > 50 µM (inactive) | 5 µM | 2.5 µM
56 | COc1ccc2nc(N(Cc3cccnc3)C(=O)C3CCC3)sc2c1 | > 50 µM (inactive) | > 50 µM | 50 µM
57 | N#Cc1ccccc1S(=O)(=O)N1CCN(C(=O)CNC(=O)c2ccc3c(c2)OCO3)CC1 | 5 µM | > 50 µM | 1.6 µM
58 | CC1CCCCN1C(=O)NCCc1coc(-c2ccc(F)cc2)n1 (stereo not drawn) | > 50 µM (inactive) | > 50 µM | > 50 µM
59 | Cc1nc2c(-c3cccs3)c(C)nn2c(NCCO)c1C | > 50 µM (inactive) | > 50 µM | > 50 µM
60 | O=C(Nc1nc2ccccc2[nH]1)c1c(O)c2cccc3c2n(c1=O)CC3 | 2 µM | > 50 µM | 1 µM
61 | Cc1ccccc1CNc1cc(C2CC2)nc(-c2nccn2C)n1 | 0.63 µM | 10 µM | 0.63 µM
62 | CC(C)(C)Nc1nc(Nc2ccc3c(c2)CS(=O)(=O)C3)nc2[nH]ccc12 | 6.3 µM | 20 µM | 5 µM
63 | COc1ccc(NS(=O)(=O)c2cccc(NC(=O)c3cc(F)cc(F)c3)c2)cc1 | > 50 µM (inactive) | > 50 µM | 20 µM
64 | COc1ccc(C)cc1-c1csc(NC(=O)C(C)n2ccnc2)n1 (stereo not drawn) | > 50 µM (inactive) | > 50 µM | > 50 µM
65 | Cc1cc2cc(CNc3ccc4c(c3)OCO4)c(=O)n(CCO)c2cc1C | 0.5 µM | 40 µM | 0.25 µM
66 | CC1=C(C(=O)Nc2ccc(Cl)cc2)C(c2ccncc2)n2ncc(C(=O)Nc3ccccc3)c2N1 (stereo not drawn) | > 50 µM (inactive) | 13 µM | > 50 µM
67 | COc1ccc2nccc(NC(=O)C3(OC)CCN(CC(O)c4ccc5c(c4)OCCO5)CC3)c2n1 (stereo not drawn) | 20 µM | 25 µM | 6.3 µM
68 | COc1ccc(NS(=O)(=O)c2cc(NC(=O)c3ccc([N+](=O)[O-])s3)ccc2OC)cc1 | 0.79 µM | 13 µM | 0.79 µM
